Read-outs that look alike come from different tables or passages of the source.
What was measured:
PHH 2D sandwich cultures = settings: cited from earlier work
clinical DILI in man = settings: cited from earlier work; for Clinical DILI classification (Figure 5): structural analogue pairs, 2008 and others
[1] = cited from earlier work
[2] = system: primary human hepatocytes (PHH) 3D spheroids
[3] = system: PHH spheroids (hanging-drop); settings: cited from earlier work
[4] = cited from earlier work; for Extent of hepatic metabolism: ref DrugBank and Prescribers' Digital Reference database
[5] = therapeutic total cmax, ref PMID
[6] = PHH 2D sandwich cultures, 100x Cmax, ref Xu 2008
[7] = FDA drug labeling DILI score, ref Chen et al., 2011
[8] = clinical DILI classification in man (POS/NEG)
[9] = clinical DILI classification used in this study, Supplementary Table 2, ref Chen et al., 2011, Guo et al., 2005, O'Brien et al., 2006, Sakatis et al., 2012, Suzuki et al., 2010, Xu et al., 2008
[10] = clinical DILI classification, Supplementary Table 1, ref Chen et al., 2011, Guo et al., 2005, O'Brien et al., 2006, Sakatis et al., 2012, Suzuki et al., 2010, Xu et al., 2008
[11] = clinical DILI classification, ref Xu et al. (2008)
[12] = reported pattern of liver damage, Supplementary Table 2, ref literature
[13] = ref Chen et al., 2011, Xu et al.
[14] = DILI classification score, ref Suzuki et al. (2010)
[15] = PHH hanging-drop spheroids, 100x Cmax, ref Proctor 2017

Structure (SMILES)	Classified as (clinical DILI in man; in vivo)	Clinical DILI class (panel heading of Figure 4) (clinical DILI in man; in vivo)	DILI in vivo (clinical DILI in man; in vivo)	FDA (0-8) (clinical DILI in man; in vivo)	Type of DILI (clinical DILI in man; in vivo)	Xu et al. (2008) (clinical DILI in man; in vivo)	Cmax [1, 5]	Chemically defined spheroids (this study) 20x [2]	2Dsw (Xu 2008) 100x (PHH 2D sandwich cultures; [6])	Extent of hepatic metabolism [4]	FDA (0-8) (clinical DILI in man; [7])	DILI in vivo (clinical DILI in man; [8])	Classified as (clinical DILI in man; [9])	DILI in vivo (clinical DILI in man; [10])	Xu et al. (2008) (clinical DILI in man; [11])	Type of DILI (clinical DILI in man; [12])	further results
CCN(CC)CC#CCOC(=O)C(O)(c1ccccc1)C1CCCCC1 (stereo not drawn) [Oxybutynin]	NEG	DILI negative	NEG	0	Non-hepatotoxic	Negative	20 nM	Negative									2Dsw (Xu 2008) 100x (PHH 2D sandwich cultures): Negative; Sakatis et al. (2012) (clinical DILI in man; in vivo): non-hepatotixic; Hanging-drop spheroids (Proctor 2017) 100x [3]: Negative
O=C1NC(=O)C(c2ccccc2)(c2ccccc2)N1 [Phenytoin]	POS	Severe DILI	POS	8	Hepatocellular injury or Mixed hepatitis	Positive	21700 nM	Negative	Positive	Extensive							FDA (Severity) (clinical DILI in man; in vivo): less DILI concern; Guo et al. (2005) (clinical DILI in man; in vivo): 2; Sakatis et al. (2012) (clinical DILI in man; in vivo): Hepatotoxic; Suzuki et al. (2010) (clinical DILI in man; in vivo): 2
CC(C)NCC(O)c1ccc(O)c(O)c1 (stereo not drawn) [Isoproterenol]	NEG	DILI negative	NEG	0	Non-hepatotoxic	Negative	2020 nM	Negative	Negative	Moderate							O'Brien et al. (2003) (clinical DILI in man; in vivo): Non-toxic
COc1cc(NC(C)CCCN)c2ncccc2c1 (stereo not drawn) [Primaquine]							1080 nM	Negative	Negative	Extensive	0	NEG	NEG	NEG	Negative	Non-hepatotoxic	FDA (Severity) (clinical DILI in man; FDA drug labeling DILI concern, ref Chen et al., 2011): no DILI concern; Clinical DILI classification (Figure 5) (clinical DILI in man; [13]): DILI negative; hepatotoxicity evaluation in CD-spheroids [2]: did not cause apparent toxicity at any concentration tested
CC(C)COCC(CN(Cc1ccccc1)c1ccccc1)N1CCCC1 (stereo not drawn) [Bepridil]							2000 nM	Positive	Positive	Extensive		POS	POS	POS		Hepatocellular injury	
CCC1(c2ccc(N)cc2)CCC(=O)NC1=O (stereo not drawn) [Aminoglutethimide]							25400 nM	Negative	Negative	Moderate		NEG	NEG	NEG		Non-hepatotoxic	
Cc1ncc(CO)c(CO)c1O [Pyridoxine]	NEG	DILI negative	NEG	0	Non-hepatotoxic	Negative	122 nM	Negative	Negative	Extensive							O'Brien et al. (2003) (clinical DILI in man; in vivo): Non-toxic
NCC1(CC(=O)O)CCCCC1 [Gabapentin]								Negative		Minimal	3	NEG	NEG	NEG	Negative	Non-hepatotoxic	2Dsw (Xu 2008) 100x (PHH 2D sandwich cultures): Negative; Suzuki et al. (2010) (clinical DILI in man; [14]): 1; Cmax ([1]; human, in vivo): 14400 nM
CCCCc1oc2ccccc2c1C(=O)c1cc(I)c(OCCN(CC)CC)c(I)c1 [Amiodarone]									Positive								Hanging-drop spheroids (Proctor 2017) 100x [3, 15]: Positive
O=C(OCC(O)CO)c1ccccc1Nc1ccnc2cc(Cl)ccc12 (stereo not drawn) [Glafenine]	POS	Severe DILI	POS	Withdrawn	Hepatocellular injury	Positive	1880 nM	Negative	Negative	Extensive							FDA (Severity) (clinical DILI in man; in vivo): most DILI concern; Sakatis et al. (2012) (clinical DILI in man; in vivo): Hepatotoxic
Nc1cc(-c2ccncc2)c[nH]c1=O [Amrinone]							13800 nM	Negative	Negative	Extensive	5	POS	POS	POS	Positive	Hepatocellular injury	
Cc1cc(C2CCCCC2)n(O)c(=O)c1 [Ciclopirox]							373 nM	Negative	Negative	Extensive		NEG	NEG	NEG		Non-hepatotoxic	
CCOC(=O)[C@H](CCc1ccccc1)N[C@@H](C)C(=O)N1Cc2ccccc2C[C@H]1C(=O)O [Quinapril]							1200 nM	Negative	Negative	Moderate	3	POS	POS	POS	Positive	Cholestatic injury	Guo et al. (2005) (clinical DILI in man; DILI classification score, ref Guo et al. (2005)): 3; Suzuki et al. (2010) (clinical DILI in man; [14]): 1
Cc1nc2n(c(=O)c1CCN1CCC(c3noc4cc(F)ccc34)CC1)CCCC2 [Risperidone]	POS	High DILI concern	POS	3	Hepatocellular injury, Cholestatic injury or Mixed hepatitis	Positive	80 nM	Negative	Negative	Extensive							Guo et al. (2005) (clinical DILI in man; in vivo): 2; Suzuki et al. (2010) (clinical DILI in man; in vivo): 1; first pass metabolism ([4]; ref Madden et al., 1995, El-Hage and Surguladze, 2010, Rawden et al., 2000, Villaverde et al.): extensive first pass metabolism
Clc1ccc2c(c1)C(N1CCNCC1)=Nc1ccccc1O2 [Amoxapine]							220 nM	Negative	Negative	Extensive	3	NEG	NEG	NEG	Negative	Non-hepatotoxic	Clinical DILI classification (Figure 5) (clinical DILI in man; [13]): DILI negative; hepatotoxicity evaluation in CD-spheroids [2]: not found to be toxic at any concentration tested
Clc1ccccc1CN1CCc2sccc2C1 [Ticlopidine]							8070 nM		Positive								Hanging-drop spheroids (Proctor 2017) 100x [3, 15]: Positive
CC[C@@H]1C(=O)OC[C@@H]1Cc1cncn1C [Pilocarpine]							84 nM	Negative	Negative	Minimal	3	NEG	NEG	NEG	Negative	Non-hepatotoxic	
COc1ccc2c(c1)c(CC(=O)O)c(C)n2C(=O)c1ccc(Cl)cc1 [Indomethacin]								Positive									hepatotoxicity evaluation in CD-spheroids [2]: revealed the DILI liability; hepatotoxicity evaluation in CD-spheroids ([2]; human, 14 days): clearly detected already at 1× cmax exposure levels; hepatotoxicity classification in hanging-drop PHH spheroids ([3]; 100× cmax, 2 weeks, ref Proctor et al., 2017): previously missed
CC(C)(Oc1ccc(CCNC(=O)c2ccc(Cl)cc2)cc1)C(=O)O [Bezafibrate]	NEG	DILI negative	NEG		Non-hepatotoxic		16600 nM	Negative	Negative	Extensive							
NNCCc1ccccc1 [Phenelzine]	NEG	DILI negative	NEG	3	Non-hepatotoxic	Negative	85 nM	Negative	Negative	Extensive							Sakatis et al. (2012) (clinical DILI in man; in vivo): Hepatotoxic
